Assay results as given in ChEMBL document CHEMBL5550123, “Discovery of novel pyridone-benzamide derivatives possessing a 1-methyl-2-benzimidazolinone moiety as potent EZH2 inhibitors for the treatment of B-cell lymphomas” (Bioorg Med Chem, 2024).

What was measured:
[1] = tested on: KARPAS-422; experiment: Antiproliferative activity against human KARPAS-422 cells assessed as inhibition of cell growth measured after 72 hrs by CCK-8 method; format: functional, cell-based; details: KARPAS-422, 72 h
[2] = Inhibition of EZH2 Y641N mutant (unknown origin) preincubated for 15 mins followed by substrate addition and measured after 45 mins by AlphaLISA assay; design: species or system Homo sapiens
[3] = Metabolic stability in human liver microsomes assessed as half life at 1 uM measured upto 60 mins in presence of NADPH by LC-MS/MS analysis; format: ADME, Microsome
[4] = Metabolic stability in human liver microsomes assessed as intrinsic clearance at 1 uM measured upto 60 mins in presence of NADPH by LC-MS/MS analysis; format: ADME, Microsome; details: read-out: CLH
[5] = Inhibition of EZH2 Y641F mutant (unknown origin) preincubated for 15 mins followed by substrate addition and measured after 45 mins by AlphaLISA assay; design: species or system Homo sapiens

Structure (SMILES) | IC50 [1] [nM] | further results
CCN1CCC(n2c(=O)n(C)c3ccc(-c4cc(C(=O)NCc5c(C)cc(C)[nH]c5=O)c(C)c(N(CC)C5CCOCC5)c4)cc32)CC1 | 32.8 | –
CCN(c1cc(-c2ccc3c(c2)n(C)c(=O)n3C2CCN(C)CC2)cc(C(=O)NCc2c(C)cc(C)[nH]c2=O)c1C)C1CCN(C(C)=O)CC1 | 105 | –
CCN(c1cc(-c2ccc3c(c2)n(C)c(=O)n3C2CCN(C(C)=O)CC2)cc(C(=O)NCc2c(C)cc(C)[nH]c2=O)c1C)C1CCOCC1 | 85.8 | –
CCN(c1cc(-c2ccc3c(c2)n(C)c(=O)n3C2CCN(C)CC2)cc(C(=O)NCc2c(C)cc(C)[nH]c2=O)c1C)C1CCN(C)CC1 | 173 | –
CCN(c1cc(-c2ccc3c(c2)n(C2CN(C4COC4)C2)c(=O)n3C)cc(C(=O)NCc2c(C)cc(C)[nH]c2=O)c1C)C1CCOCC1 | 154 | –
CCN(c1cc(-c2ccc3c(c2)n(CC)c(=O)n3C2CCOCC2)cc(C(=O)NCc2c(C)cc(C)[nH]c2=O)c1C)C1CCOCC1 | 62.5 | –
CCC(=O)N1CCC(n2c(=O)n(C)c3cc(-c4cc(C(=O)NCc5c(C)cc(C)[nH]c5=O)c(C)c(N(CC)C5CCOCC5)c4)ccc32)CC1 | 37.7 | –
CCN(c1cc(-c2ccc3c(c2)n(C2CN(C)C2)c(=O)n3C)cc(C(=O)NCc2c(C)cc(C)[nH]c2=O)c1C)C1CCOCC1 | 43.5 | –
CCN(c1cc(-c2ccc3c(c2)n(C)c(=O)n3C2CCN(C)CC2)cc(C(=O)NCc2c(C)cc(C)[nH]c2=O)c1C)C1CCN(C2COC2)CC1 | 219 | –
CCN(c1cc(-c2ccc3c(c2)n(C)c(=O)n3C2CCN(S(C)(=O)=O)CC2)cc(C(=O)NCc2c(C)cc(C)[nH]c2=O)c1C)C1CCOCC1 | 68.4 | –
CCN(c1cc(-c2ccc3c(c2)n(C)c(=O)n3C2CN(C(=O)C3CC3)C2)cc(C(=O)NCc2c(C)cc(C)[nH]c2=O)c1C)C1CCOCC1 | 31.2 | –
CCN(c1cc(-c2ccc3c(c2)n(C)c(=O)n3C2COC2)cc(C(=O)NCc2c(C)cc(C)[nH]c2=O)c1C)C1CCOCC1 | 57.4 | –
CCN(c1cc(-c2ccc3c(c2)n(C)c(=O)n3C2CCN(C)CC2)cc(C(=O)NCc2c(C)cc(C)[nH]c2=O)c1C)C1CCN(CC2CC2)CC1 | 159 | –
CCN(c1cc(-c2ccc3c(c2)n(C)c(=O)n3C2CCOCC2)cc(C(=O)NCc2c(C)cc(C)[nH]c2=O)c1C)C1CCOCC1 | 49.5 | –
CCN1CC(n2c(=O)n(C)c3ccc(-c4cc(C(=O)NCc5c(C)cc(C)[nH]c5=O)c(C)c(N(CC)C5CCOCC5)c4)cc32)C1 | 52.9 | –
CCN(c1cc(-c2ccc3c(c2)[nH]c(=O)n3C2CCOCC2)cc(C(=O)NCc2c(C)cc(C)[nH]c2=O)c1C)C1CCOCC1 | 51.2 | –
CCN(c1cc(-c2ccc3c(c2)n(C)c(=O)n3C2CCN(CC(F)F)CC2)cc(C(=O)NCc2c(C)cc(C)[nH]c2=O)c1C)C1CCOCC1 | 50.6 | –
CCN(c1cc(-c2ccc3c(c2)n(C)c(=O)n3C2CN(C(C)=O)C2)cc(C(=O)NCc2c(C)cc(C)[nH]c2=O)c1C)C1CCOCC1 | 145 | –
CCN(c1cc(-c2ccc3c(c2)n(C)c(=O)n3C2CCN(CC(F)(F)F)CC2)cc(C(=O)NCc2c(C)cc(C)[nH]c2=O)c1C)C1CCOCC1 | 52.8 | –
CCN(c1cc(-c2ccc3c(c2)n(C)c(=O)n3C2CN(CC(F)F)C2)cc(C(=O)NCc2c(C)cc(C)[nH]c2=O)c1C)C1CCOCC1 | 45.6 | –
CCN(c1cc(-c2ccc3c(c2)n(C)c(=O)n3C2CN(CC#N)C2)cc(C(=O)NCc2c(C)cc(C)[nH]c2=O)c1C)C1CCOCC1 | 58.2 | –
CCN(c1cc(-c2ccc3c(c2)n(C)c(=O)n3CCOC)cc(C(=O)NCc2c(C)cc(C)[nH]c2=O)c1C)C1CCOCC1 | 60.8 | –
CCN(c1cc(-c2ccc3c(c2)n(C)c(=O)n3C2CCN(CC#N)CC2)cc(C(=O)NCc2c(C)cc(C)[nH]c2=O)c1C)C1CCOCC1 | 53.8 | –
CCN(c1cc(-c2ccc3c(c2)n(C)c(=O)n3C2CN(CC3CC3)C2)cc(C(=O)NCc2c(C)cc(C)[nH]c2=O)c1C)C1CCOCC1 | 39.7 | –
CCN(c1cc(-c2ccc(CN3CCOCC3)cc2)cc(C(=O)NCc2c(C)cc(C)[nH]c2=O)c1C)C1CCOCC1 [TAZEMETOSTAT] | 35 | IC50 [2]: 0.85 nM; half-life at 1 µM [3]: 0.133 h; microsomal CLint at 1 µM [4]: 174 µL/min/mg; IC50 [5]: 0.37 nM

These reach a lower IC50 [1]. Values come first.

IC50 [1] [nM] | Structure (SMILES) | further results
23.2 | CCN(c1cc(-c2ccc3c(c2)n(C)c(=O)n3C2CCN(C)CC2)cc(C(=O)NCc2c(C)cc(C)[nH]c2=O)c1C)C1CCC(N(C)C2COC2)CC1 (stereo not given) | –
26.3 | CCN(c1cc(-c2ccc3c(c2)n(C2CCN(C)CC2)c(=O)n3C)cc(C(=O)NCc2c(C)cc(C)[nH]c2=O)c1C)C1CCOCC1 | –
9.63 | CCN(c1cc(-c2ccc3c(c2)n(C)c(=O)n3C2CCN(C)CC2)cc(C(=O)NCc2c(C)cc(C)[nH]c2=O)c1C)C1CCC(N(C)CCOC)CC1 (stereo not given) | IC50 [2]: 0.17 nM; half-life at 1 µM [3]: 2.46 h; microsomal CLint at 1 µM [4]: 9.38 µL/min/mg; IC50 [5]: 0.14 nM
29.3 | CCN(c1cc(-c2ccc3c(c2)n(C)c(=O)n3C2CN(C)C2)cc(C(=O)NCc2c(C)cc(C)[nH]c2=O)c1C)C1CCOCC1 | –
26.4 | CCN(C)C1CCC(N(CC)c2cc(-c3ccc4c(c3)n(C)c(=O)n4C3CCN(C)CC3)cc(C(=O)NCc3c(C)cc(C)[nH]c3=O)c2C)CC1 (stereo not given) | –
27.8 | CCN(c1cc(-c2ccc3c(c2)n(C)c(=O)n3C2CCN(C(=O)C3CC3)CC2)cc(C(=O)NCc2c(C)cc(C)[nH]c2=O)c1C)C1CCOCC1 | –
29.8 | CCN(C(=O)C1CC1)c1cc(-c2ccc3c(c2)n(C)c(=O)n3C2CCN(C)CC2)cc(C(=O)NCc2c(C)cc(C)[nH]c2=O)c1C | –
24.6 | CCN(c1cc(-c2ccc3c(c2)n(C)c(=O)n3C2CCN(CC3CC3)CC2)cc(C(=O)NCc2c(C)cc(C)[nH]c2=O)c1C)C1CCOCC1 | –
25.5 | CCN(c1cc(-c2ccc3c(c2)n(C)c(=O)n3C2CCN(C3COC3)CC2)cc(C(=O)NCc2c(C)cc(C)[nH]c2=O)c1C)C1CCOCC1 | –
18.4 | CCN(c1cc(-c2ccc3c(c2)n(C)c(=O)n3C2CCN(C)CC2)cc(C(=O)NCc2c(C)cc(C)[nH]c2=O)c1C)C1CCOCC1 | –
23.5 | CCN1CCC(n2c(=O)n(C)c3cc(-c4cc(C(=O)NCc5c(C)cc(C)[nH]c5=O)c(C)c(N(CC)C5CCOCC5)c4)ccc32)CC1 | –
29.9 | CCN(c1cc(-c2ccc3c(c2)n(C2CCOCC2)c(=O)n3C)cc(C(=O)NCc2c(C)cc(C)[nH]c2=O)c1C)C1CCOCC1 | –
